Experimental data published in patent US20210346384A1, “COMBINATIONS OF TGF-BETA INHIBITORS AND CDK INHIBITORS FOR CANCER TREATMENTS” (PFIZER INC., priority 2018, published 2021).

What was measured:
CT26 tumor cells = test: CT26 syngeneic mouse tumor model (survival and tumor volume); format: in vivo; conditions: for Median Survival: CT26 tumor bearing BALB/cJ mice, PF-06952229 30 mg/kg PO BID 7 days on/7 off, palbociclib 10 mg/kg PO BID, PF-06873600 50 mg/kg PO BID, survival endpoint tumor volume 2000 mm^3
Procedure: CT26 cells were obtained from American Type Culture Collection (ATCC) and cultured in Roswell Park Memorial Institute (RPM11640) supplemented with 10% fetal bovine serum (FBS). All cells were maintained in a humidified incubator at 37° C. with 5% carbon dioxide (CO2). Female Balb/cJ mice were obtained from Jackson Laboratories at 8 weeks of age. To generate the syngeneic model, 0.25 million CT26 tumor cells were subcutaneously implanted into the right flank of female BALB/cJ mice. Tumor bearing mice were randomized into six treatment groups based on average tumor sizes of approximately 50 mm^3 per group, on Day 10 post tumor cell implantation. Study groups included vehicle, 30 mg/kg PF-06952229, 10 mg/kg PD-0332991 (Palbociclib), PF-06873600 (CDK 2/4/6 inhibitor), combination of PF-06952229 +PD-0332991 and combination of PF-06952229+PF-06873600. PF-06952229 was administered orally twice daily (BID) with 7 days on and 7 days off schedule. PD-0332991 or PF-06873600 was administered orally BID continuously, until the end of the study.
Tumor volumes were measured three times a week. Tumor volume was calculated based on two dimensional caliper measurement with cubic millimeter volume calculated using the formula (length×width2)×0.5. Mice were sacrificed when the tumor volumes reached 2000 mm^3, which was the survival endpoint for this study. Survival curves were plotted using GraphPad Prism 7 software. Statistical analyses were performed using the Log-rank (Mantel-Cox) test.

pS807/811 Rb = test: Phospho-Rb Ser807/811 Bioassay of MCF7 xenograft tumor lysates; conditions: tumor samples Day 21 post-treatment initiation; result in words
[1] = test system: MCF7 human ER+ breast cancer cells; test: MCF7 human ER+ xenograft mouse tumor model (tumor volume); format: in vivo; conditions: NSG mice; Day 21 post-treatment initiation; PF-06952229 30 mg/kg PO BID 7 on/7 off, PD-0332991 10 mg/kg PO BID, PF-05279929 10 mg/kg SC twice per week; result in words
Procedure: MCF7 human ER^+ breast cancer cells were obtained from American Type Culture
Collection (ATCC) and cultured in Roswell Park Memorial Institute (RPMI1640) supplemented with 10% fetal bovine serum (FBS). All cells were maintained in a humidified incubator at 37° C. with 5% carbon dioxide (CO2). Female NSG mice were obtained from Jackson Laboratories at 7 weeks of age. To generate the xenograft model, 17β-ESTRADIOL pellets (0.36 mg, 90-day release) were subcutaneously implanted into the left flank of female NSG mice, 7 days before the tumor cell implantation. Then 5 million MCF7 cancer cells were subcutaneously implanted into the right axial region of female NSG mice. Tumor-bearing mice were randomized into treatment groups based on average tumor sizes of approximately 180 mm^3, on Day 27 post-tumor cell implantation, and treatments were initiated. […]
Tumor volumes were measured two times a week. Tumor volume was calculated based on two-dimensional caliper measurement with cubic millimeter volume calculated using the formula (length×width^2)×0.5. Body weights were measured two times a week. […] Comparisons of treated groups to control group or to other treated groups are made using a t statistic under the ANCOVA model with fold change and the associated 95% confidence interval calculated.

pSMAD2 = pSMAD2 Bioassay of MCF7 xenograft tumor samples; format: in vivo, human; conditions: tumor samples Day 21 post-treatment initiation; result in words
Procedure: pSMAD2 Bioassay: Tumor samples were collected and snap-frozen in 2.0 mL cryogenic tubes (Nalgene™) prior to analysis. Thawed tumor samples were homogenized in cell extraction buffer (Invitrogen, Carlsbad, Calif.) with addition of protease and phosphatase inhibitors. Tumor lysates were centrifuged to pellet insoluble debris, and the clarified supernatants were transferred to new tubes. pSmad2 was measured using a 6-Plex TGFbeta Signaling Magnetic Bead Kit (Millipore, Burlington, Mass.). All assays were carried out at room temperature. After blocking a 96-well black round-bottom plate with assay buffer for 10 minutes, 25 μL of the working microsphere bead mixture (beads were diluted to 1× with assay buffer from kit) and 25 μL of 1:10 diluted tumor lysate (1:10 dilution with assay buffer) were added to the plate. […] After washing, the beads were resuspended in 150 μL/well of sheath fluid (Bio-Rad catalog # 171-000055) and analyzed using a Bio-Plex 200 analyzer (Bio-Rad, Hercules Calif.). The mean fluorescence intensity (MFI) from each well was determined using Bio-Plex Manager Software, version 6.1 (Bio-Rad). […]
Total Smad2 Bioassay: PathScan Total Smad2 Sandwich ELISA Kit (Cell signaling, Catolog #7244C) was used to determine the total Smad2 protein according to manufacturer's instructions. […] The absorbance of the samples at 450 nm was measured on a Spectramax plate reader (Molecular Devices).

SMILES	Median Survival (CT26 tumor cells) [days]	pS807/811 Rb levels (pS807/811 Rb)	Tumor growth inhibition (CT26 tumor cells; Day 17 post-treatment initiation, result in words)	Survival (CT26 tumor cells; Day 40 post-treatment initiation, result in words)	Tumor growth inhibition [1]	Inhibition of pSMAD2 (pSMAD2)
CC(=O)c1c(C)c2cnc(Nc3ccc(N4CCNCC4)cn3)nc2n(C2CCCC2)c1=O [Palbociclib, 6-acetyl-8-cyclopentyl-5-methyl-2-(5-piperazin-1-yl-pyridin-2-ylamino)-8H-pyrido[2,3-d]pyrimidin-7-one, reference compound]	26.5	slight decrease	–	–	–	–
CC(C)c1cnc(-c2cc(Cl)ccc2F)cc1Nc1ccncc1C(=O)NC(CO)CO [PF-06952229, 4-(2-(5-chloro-2-fluorophenyl)-5-isopropylpyridin-4-ylamino)-N-(1,3-dihydroxypropan-2-yl)nicotinamide]	24	slight increase	did not significantly inhibit tumor growth	did not significantly increase survival	did not significantly inhibit tumor growth	significant inhibition of pSMAD2
C[C@@]1(O)CCC[C@H]1n1c(=O)c(C(F)F)cc2cnc(NC3CCN(S(C)(=O)=O)CC3)nc21 [PF-06873600]	26.5	–	–	–	–	–
